Laboratory results from patent publication US4396543A.
≈ marks a conversion by molar mass, not a printed value. Where “and” joins values, the source holds several entries; their conditions need not be identical. Identical values can stand only once.

Columns and labels:
[1] = test system: Streptococcus Group D 9960; experiment: agar-dilution MIC; assay type: cell-based; details: two values = two experiments, 2 median of five, 19 median of three
Method: (§1) In Table VII activity is measured by the minimal inhibitory concentration (MIC), i.e. the lowest concentration of compound at which growth of the microorganism is inhibited by the test compound.

[2] = test system: Staphylococcus aureus X400; experiment: agar-dilution MIC; assay type: cell-based; details: Staphylococcus aureus X400, methicillin-resistant strain; two values = two experiments; 2 median of five, 19 median of three
Method: as §1

[3] = test system: Staphylococcus aureus; experiment: in vivo experimental bacterial infection, ED50; details: mice, two doses subcutaneously; two values = two experiments
[4] = test system: Staphylococcus epidermidis EPI2; experiment: agar-dilution MIC; assay type: cell-based; details: two values = two experiments, 2 median of five, 19 median of three
[5] = test system: Streptococcus Group D X66; experiment: agar-dilution MIC; assay type: cell-based; details: two values = two experiments, 2 median of five, 19 median of three
Method: as §1

[6] = test system: Staphylococcus aureus V41; experiment: agar-dilution MIC; assay type: cell-based; details: Staphylococcus aureus V41, penicillin-resistant strain; two values = two experiments; 2 median of five, 19 median of three
Method: as §1

[7] = test system: Streptococcus pyogenes; experiment: in vivo experimental bacterial infection, ED50; details: mice; for ED50 Values Streptococcus pyogenes Oral: two doses orally; for ED50 Values Streptococcus pyogenes Subcutaneous: two doses subcutaneously, two values = two experiments
[8] = test system: Staphylococcus epidermidis EPI1; assay type: cell-based; details: two values = two experiments, 2 median of five, 19 median of three
[9] = test system: Staphylococcus aureus X1.1; experiment: agar-dilution MIC; assay type: cell-based; details: two values = two experiments, 2 median of five, 19 median of three experiments
Method: as §1

[10] = toxicity test, LD50; details: mouse, in vivo, iv; administered intravenously; read-out: LD50 (mg/kg) in Mice
[11] = test system: Streptococcus pyogenes C203; experiment: agar-dilution MIC; assay type: cell-based; details: two values = two experiments, 2 median of five, 19 median of three

Structure (SMILES)	MIC [1] [µg/mL]	MIC [2] [µg/mL]	ED50 Values Staphylococcus aureus Subcutaneous [3] [mg/kg × 2]	MIC [4] [µg/mL]	MIC [5] [µg/mL]	MIC [6] [µg/mL]	ED50 Values Streptococcus pyogenes Oral [7] [mg/kg × 2]	ED50 Values Streptococcus pyogenes Subcutaneous [7]	MIC [8] [µg/mL]	MIC [9] [µg/mL]	LD50 [10] [mg/kg]	MIC [11] [µg/mL]
CCCCCCCCCCC(=O)N[C@@H](Cc1ccccc1)C(=O)N[C@@H](Cc1c[nH]c2ccccc12)C(=O)N[C@H](CC(N)=O)C(=O)N[C@@H](CC(=O)O)C(=O)N[C@@H]1C(=O)NCC(=O)N[C@@H](CCCN)C(=O)N[C@@H](CC(=O)O)C(=O)N[C@H](C)C(=O)N[C@@H](CC(=O)O)C(=O)NCC(=O)N[C@H](CO)C(=O)N[C@@H]([C@H](C)CC(=O)O)C(=O)N[C@@H](CC(=O)c2ccccc2N)C(=O)O[C@@H]1C [Compound 20]	2 (≈ 1.12 µM)	2 (≈ 1.12 µM)	1.25	2 (≈ 1.12 µM)	4 (≈ 2.24 µM)	0.5 (≈ 0.281 µM)	> 200	0.35 mg/kg × 2	2 (≈ 1.12 µM)	0.5 (≈ 0.281 µM)	400	0.125 (≈ 0.0701 µM)
CCCCCCCCCCCCC(=O)N[C@@H](Cc1ccccc1)C(=O)N[C@@H](Cc1c[nH]c2ccccc12)C(=O)N[C@H](CC(N)=O)C(=O)N[C@@H](CC(=O)O)C(=O)N[C@@H]1C(=O)NCC(=O)N[C@@H](CCCN)C(=O)N[C@@H](CC(=O)O)C(=O)N[C@H](C)C(=O)N[C@@H](CC(=O)O)C(=O)NCC(=O)N[C@H](CO)C(=O)N[C@@H]([C@H](C)CC(=O)O)C(=O)N[C@@H](CC(=O)c2ccccc2N)C(=O)O[C@@H]1C [Compound 21]	0.25 (≈ 0.138 µM)	2 (≈ 1.11 µM)	0.76	2 (≈ 1.11 µM)	1 (≈ 0.553 µM)	0.5 (≈ 0.276 µM)	> 200	0.14 mg/kg × 2	2 (≈ 1.11 µM)	0.5 (≈ 0.276 µM)		0.125 (≈ 0.0691 µM)
CCCCCCCCCCCCCC(=O)N[C@@H](Cc1ccccc1)C(=O)N[C@@H](Cc1c[nH]c2ccccc12)C(=O)N[C@H](CC(N)=O)C(=O)N[C@@H](CC(=O)O)C(=O)N[C@@H]1C(=O)NCC(=O)N[C@@H](CCCN)C(=O)N[C@@H](CC(=O)O)C(=O)N[C@H](C)C(=O)N[C@@H](CC(=O)O)C(=O)NCC(=O)N[C@H](CO)C(=O)N[C@@H]([C@H](C)CC(=O)O)C(=O)N[C@@H](CC(=O)c2ccccc2N)C(=O)O[C@@H]1C [Compound 22]	0.5 (≈ 0.274 µM)	2 (≈ 1.1 µM)	4.8	4 (≈ 2.19 µM)	1 (≈ 0.548 µM)	1 (≈ 0.548 µM)	> 200	< 0.27 mg/kg × 2 and 0.36 mg/kg × 2	4 (≈ 2.19 µM)	0.5 (≈ 0.274 µM)		0.25 (≈ 0.137 µM)
CCCCCCCCCCC(=O)N[C@@H](Cc1ccccc1)C(=O)NCCC[C@@H]1NC(=O)CNC(=O)[C@@H](NC(=O)[C@H](CC(=O)O)NC(=O)[C@@H](CC(N)=O)NC(=O)[C@@H](N)Cc2c[nH]c3ccccc23)[C@@H](C)OC(=O)[C@H](CC(=O)c2ccccc2N)NC(=O)[C@H]([C@H](C)CC(=O)O)NC(=O)[C@@H](CO)NC(=O)CNC(=O)[C@H](CC(=O)O)NC(=O)[C@@H](C)NC(=O)[C@H](CC(=O)O)NC1=O [Compound 26]	32 (≈ 18 µM)	> 128	9.2	> 128	> 128	> 128	> 200	> 18 mg/kg × 2	> 128	8 (≈ 4.49 µM)		1 (≈ 0.561 µM)
CCCCCC(=O)N[C@@H](Cc1c[nH]c2ccccc12)C(=O)NCCC[C@@H]1NC(=O)CNC(=O)[C@@H](NC(=O)[C@H](CC(=O)O)NC(=O)[C@@H](CC(N)=O)NC(=O)[C@H](Cc2c[nH]c3ccccc23)NC(=O)CCCCCCCCC(C)CC)[C@@H](C)OC(=O)[C@H](CC(=O)c2ccccc2N)NC(=O)[C@H]([C@H](C)CC(=O)O)NC(=O)[C@@H](CO)NC(=O)CNC(=O)[C@H](CC(=O)O)NC(=O)[C@@H](C)NC(=O)[C@H](CC(=O)O)NC1=O (stereo partly drawn) [Compound 29]	32 (≈ 16.4 µM)	1 (≈ 0.514 µM)			8 (≈ 4.11 µM)		> 200	10.6 mg/kg × 2			37.5	
